Assay [1] has as its system THP1-Dual cells, IRF pathway (IRF3). In words: STING THP1 Reporter Assay, IRF pathway (secreted Lucia luciferase, QUANTI-Luc). The assay is classed as cell-based. The settings on record: 10% human plasma, luciferase readout, 100% activation = 100 μM cGAMP, read-out: THP1 Reporter Assays EC50 (μM) IRF3. The source says: (§1) THP1-Dual™ cells were derived from the human THP-1 monocyte cell line by stable integration of two inducible reporter constructs. To this end, THP1-Dual™ cells allow the simultaneous study of the NF-κB pathway, by monitoring the activity of SEAP, and the IRF pathway by assessing the activity of a secreted luciferase (Lucia). Both reporter proteins are readily measurable in the cell culture supernatant when using QUANTI-Blue™, a SEAP detection reagent, and QUANTI-Luc™, a luciferase detection reagent.
(§2) THP1-Dual™ cells induce the activation of NF-κB in response to STING agonists. They also trigger the IRF pathway upon stimulation with STING agonists, such as cGAMP. Here, the THP-1-Dual cells were used to assess STING binders for function on the cellular level.
(§3) Serial dilutions of compounds in DMSO were added to low volume 384 well plates at 100 nl/well using an ECHO acoustic dispenser (Labcyte, model 550) to achieve final starting concentration of 100 μM in cell suspension. THP-1 Dual™ STING reporter cells (Invivogen, Dual cells cat #THPD-nfis) were added to the plates with compounds at 15,000 cells in 10 μL per well in RPMI media (Gibco, cat #11875) containing 10% human plasma in a low volume 384-well black wall clear bottom tissue culture plate (Corning, cat #3542) for SEAP assay and low volume solid white plate (Corning, cat #3826) for luciferase assay. One column of the plate was reserved for treatment with cGAMP at 100 μM for 100% activation calculation and one column for no treatment (DMSO only) for baseline activation. Plates were then incubated in 37 OC incubator at 5% CO2 for 20 hours.
(§4) In the SEAP assay, 5 μl of 2× QuantiBlue (Invivogen, cat #Rep-qb2) is added to 384 well black plates seeded with THP1 cells and incubated at 37° C. for 2 hours. Plates were read on the Envision (Perkin Elmer) at 620 nm wavelength (OD620). In the luciferase assay, 5 μl of Quantiluc (Invivogen, Rep-qlc2) is added to white 384 well plates seeded with THP1 cells and read at 5 minutes on the Envision (Perkin Elmer) using a luminescence protocol (RLU). For both cell lines, 100% activation was determined by value (RLU) of THP-1 Dual STING cells stimulated with 100 μM cGAMP (Invivogen, cat #TLRL-NACGA23-5).
A general note: In a reporter assay the amount or activity of a reporter protein is the signal.

In assay [2] the test system is THP1-Dual cells, NF-κB pathway. In words: STING THP1 Reporter Assay, NF-κB pathway (SEAP, QUANTI-Blue). The assay is classed as cell-based. As to conditions: 10% human plasma, SEAP readout (OD620), 100% activation = 100 μM cGAMP, read-out: THP1 Reporter Assays EC50 (μM) NFkB.
Text: as §1, §2, §3, §4

The target in assay [3] is T1, STING AQ: His-TVMV-S-hSTING(155-341)-G230A-R293Q (Homo sapiens, UniProt Q86WV6, G230A/H232R/R293Q).
T1 construct: STING AQ: His-TVMV-S-hSTING(155-341)-G230A-R293Q
In words: STING HTRF binding assay (time resolved FRET competition), STING AQ. The settings on record: 20 nM His-tagged STING AQ cytoplasmic domain, 40 nM fluorescein-labeled cGAMP analog probe, one hour; read-out: HTRF Binding Assays IC50 (μM) AQ. As to the method: (§5) A time resolved FRET-based competition binding assay was used to assess test article binding to STING WT and STING AQ. His-tagged STING cytoplasmic domain (WT or AQ) at a concentration of 20 nM was incubated with 2.5 nM Tb-labeled anti-His antibody, test compound, and fluorescein-labeled cGAMP analog probe (BioLog cat. no. C195) at a concentration of 200 nM (STING WT) or 40 nM (STING AQ) in PBS containing 0.005% Tween-20 and 0.1% BSA for one hour. Fluorescence at 495 nm and 520 nm was measured using an EnVision microplate reader to quantify FRET between Tb-labeled anti-His antibody and fluorescein-labeled probe. Background was defined as the signal obtained in the absence of STING protein, and background subtracted FRET ratios were normalized to the maximum signal obtained in the absence of test compound. These values were converted to a percent inhibition. Percent inhibition was determined for test compounds at 11 concentrations. The IC50, defined as the concentration of competing test compound needed to reduce specific binding of the probe by 50%, was calculated using the 4 parameter logistic equation to fit the data

The target in assay [4] is T2, STING WT: His-TVMV-S-hSTING(155-341)-H232R (Homo sapiens, UniProt Q86WV6, H232R).
T2 construct: STING WT: His-TVMV-S-hSTING(155-341)-H232R
In words: STING HTRF binding assay (time resolved FRET competition), STING WT. The settings on record: 20 nM His-tagged STING WT cytoplasmic domain, 200 nM fluorescein-labeled cGAMP analog probe, one hour; read-out: HTRF Binding Assays IC50 (μM) WT. As to the method: as §5
(In general: Time-resolved FRET reads energy transfer from a long-lived donor to a nearby acceptor.)

Like-named read-outs stand apart in the source and are kept apart here.

T2 sequence (Q86WV6 with tags, fused parts or gaps H232R): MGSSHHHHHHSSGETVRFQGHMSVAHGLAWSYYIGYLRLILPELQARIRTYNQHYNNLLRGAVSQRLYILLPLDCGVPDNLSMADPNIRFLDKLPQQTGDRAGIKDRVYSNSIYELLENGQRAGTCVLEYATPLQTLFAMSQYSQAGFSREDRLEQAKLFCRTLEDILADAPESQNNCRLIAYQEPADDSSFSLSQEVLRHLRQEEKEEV
T1 sequence (Q86WV6 with tags, fused parts or gaps G230A/H232R/R293Q): as the sequence (Q86WV6 with tags, fused parts or gaps H232R) above, with G99A, R162Q counted along it

Regarding `NC(=O)c1cc([C@@H]2C[C@@H]3COP(=O)(S)OC[C@@H]4[C@@H](COP(=O)(S)OC[C@H]32)C[C@H]4n2cnc3c(N)ncnc32)ccn1` (single isomer, unassigned) [Example 15-1], the concentration for a half-maximal effect (EC50) is above 100 µM in assay [1] (Homo sapiens, THP1-Dual, 20 h) and above 100 µM in assay [2] (Homo sapiens, THP1-Dual, 20 h). Besides, the IC50 in assay [3] and in assay [4] was above 100 µM throughout.

Consider `Nc1ncnc2c1ncn2[C@@H]1C[C@@H]2COP(=O)(S)O[C@@H]3[C@H](F)[C@@H](COP(=O)(S)OC[C@H]21)O[C@H]3n1cnc2c1ncn1ccnc21` (single isomer, unassigned) [Example 8-4], for which the EC50 in assay [1] (20 hours) came to 26.1 µM; in assay [2] (20 hours), 32.4 µM. Further, the results for the concentration for half-maximal inhibition (IC50) in assay [3] and in assay [4] were 0.08 µM and 0.35 µM, respectively.

Consider `NC(=O)c1cc([C@@H]2C[C@@H]3COP(=O)(O)O[C@H]4[C@@H](F)[C@H](n5cnc6c(N)ncnc65)O[C@@H]4COP(=O)(O)OC[C@H]32)ccn1` [Example 12, 4-[(1R,6S,8R,9S,15R,17R,18R)-17-(6-amino-9H-purin-9-yl)-18-fluoro-3,12-dihydroxy-3,12-dioxo-2,4,11,13,16-pentaoxa-3λ^5,12λ^5-diphosphatricyclo[13.3.0.0^6,9]octadecan-8-yl]pyridine-2-carboxamide], for which the EC50 in assay [1] (Homo sapiens, THP1-Dual, 20 h) was above 100 µM; in assay [2] (Homo sapiens, THP1-Dual, 20 h), above 100 µM. Besides, the half-maximal inhibitory concentration (IC50) in assay [3] was 0.35 µM; in assay [4], 31.2 µM.

On to `Nc1ncnc2c1ncn2[C@@H]1C[C@@H]2COP(=O)(S)O[C@@H]3[C@H](F)[C@@H](COP(=O)(S)OC[C@H]21)O[C@H]3n1cnc2c1ncn1ccnc21` (single isomer, unassigned) [Example 8-3], for which the EC50 in assay [1] (20 hours) and in assay [2] (20 hours) was above 100 µM in each case. Also, the half-maximal inhibitory concentration (IC50) came out at 0.3 µM in assay [3] and 0.89 µM in assay [4].

Turning to `Nc1ncnc2c1ncn2[C@@H]1C[C@@H]2COP(=O)(S)O[C@@H]3[C@H](F)[C@@H](COP(=O)(S)OC[C@H]21)O[C@H]3n1cnc2c1ncn1ccnc21` (single isomer, unassigned) [Example 8-1], the EC50 in assay [1] (20 hours) and in assay [2] (20 hours) was above 100 µM each time. The 50% inhibitory concentration (IC50) was 3.41 µM in assay [3] and 11.1 µM in assay [4].

For `Nc1ncnc2c1ncn2[C@@H]1C[C@@H]2COP(=O)(S)O[C@@H]3[C@H](F)[C@@H](COP(=O)(S)OC[C@H]21)O[C@H]3n1cnc2c1ncn1ccnc21` (single isomer, unassigned) [Example 8-2], the EC50 in assay [1] (20 hours) and in assay [2] (20 hours) was above 100 µM each time. In addition, the IC50 turned out to be 0.51 µM in assay [3] and 3.43 µM in assay [4].

Take `Nc1ncnc2c1ncn2[C@@H]1C[C@@H]2COP(=O)(S)O[C@H]3[C@@H](O)[C@H](n4cnc5c(=O)n6cc[nH]c6nc54)O[C@@H]3COP(=O)(S)OC[C@H]21` (single isomer, unassigned) [Example 5-4]: the 50% effective concentration (EC50) in assay [1] (20 hours) and in assay [2] (20 hours) was above 100 µM throughout. In addition, the IC50 in assay [3] is 0.11 µM; in assay [4], 34.5 µM.

On to `Nc1ncnc2c1ncn2[C@@H]1O[C@@H]2COP(=O)(S)OC[C@@H]3[C@@H](COP(=O)(S)O[C@H]2[C@H]1F)C[C@H]3n1cnc2c(=O)[nH]cnc21` (single isomer, unassigned) [Example 22-1], for which the EC50 in assay [1] (20 hours) was above 100 µM; in assay [2] (Homo sapiens, THP1-Dual, 20 h), above 100 µM. Moreover, the IC50 in assay [3] was 0.1 µM; in assay [4], 5.68 µM.

With `NC(=O)c1cc([C@@H]2O[C@@H]3COP(=O)(S)OC[C@@H]4[C@@H](COP(=O)(S)O[C@@H]2[C@@H]3O)C[C@H]4n2cnc3c(N)ncnc32)ccn1` (single isomer, unassigned) [Example 20-2], the 50% effective concentration (EC50) in assay [1] (20 hours) and in assay [2] (20 hours) was above 100 µM throughout. For the same compound, the IC50 in assay [3] and in assay [4] was above 100 µM in each case.

Take `Nc1ncnc2c1ncn2[C@@H]1C[C@@H]2COP(=O)(S)O[C@H]3[C@@H](F)[C@H](n4cnc5c4ncn4ccnc54)O[C@@H]3COP(=O)(S)OC[C@H]21` (single isomer, unassigned) [Example 17-2]: the concentration for a half-maximal effect (EC50) in assay [1] (20 hours) and in assay [2] (20 hours) was above 100 µM throughout. Besides, the concentration for half-maximal inhibition (IC50) is 0.46 µM in assay [3] and 39 µM in assay [4].

For `NC(=O)c1cc([C@@H]2C[C@@H]3COP(=O)(S)O[C@H]4[C@H](F)[C@H](n5cnc6c(N)ncnc65)O[C@@H]4COP(=O)(S)OC[C@H]32)ccn1` (single isomer, unassigned) [Example 11], the EC50 in assay [1] (Homo sapiens, THP1-Dual, 20 h) is above 100 µM; in assay [2] (Homo sapiens, THP1-Dual, 20 h) it was above 100 µM. Further, the concentration for half-maximal inhibition (IC50) in assay [3] worked out at 10.1 µM; in assay [4], 52.5 µM.

Take `O=P1(S)OC[C@@H]2[C@@H](COP(=O)(S)O[C@H]3[C@@H](F)[C@H](n4cnc5c4ncn4ccnc54)O[C@@H]3CO1)C[C@H]2n1cnc2c(Cl)ncnc21` (single isomer, unassigned) [Example 18-2]: the EC50 in assay [1] (20 hours) and in assay [2] (20 hours) was above 100 µM throughout. The 50% inhibitory concentration (IC50) was 35.7 µM in assay [3] and above 100 µM in assay [4].

On to `NC(=O)c1cc([C@@H]2C[C@@H]3COP(=O)(S)O[C@H]4[C@@H](F)[C@H](n5cnc6c(N)ncnc65)O[C@@H]4COP(=O)(O)OC[C@H]32)ccn1` (single isomer, unassigned) [Example 13], for which the EC50 in assay [1] (Homo sapiens, THP1-Dual, 20 h) was 54.6 µM; in assay [2] (Homo sapiens, THP1-Dual, 20 h), 90 µM. The IC50 came to 0.1 µM in assay [3] and 4.78 µM in assay [4].

With `Nc1ncnc2c1ncn2[C@@H]1C[C@@H]2COP(=O)(O)O[C@H]3[C@@H](F)[C@H](n4cnc5c4ncn4ccnc54)O[C@@H]3COP(=O)(O)OC[C@H]21` [Example 16, (1R,6S,8R,9R,15R,17R,18R)-8-(6-amino-9H-purin-9-yl)-18-fluoro-3,12-dihydroxy-17-{3H-imidazo[2,1-f]purin-3-yl}-2,4,11,13,16-pentaoxa-3λ^5,12λ^5-diphosphatricyclo[13.3.0.0^6,9]octa-decane-3,12-dione], the EC50 in assay [1] (Homo sapiens, THP1-Dual, 20 h) came out at 23.9 µM; in assay [2] (Homo sapiens, THP1-Dual, 20 h), 72.8 µM. Moreover, the concentration for half-maximal inhibition (IC50) came to 0.02 µM in assay [3] and 4.66 µM in assay [4].

`Nc1ncnc2c1ncn2[C@@H]1O[C@@H]2COP(=O)(S)OC[C@@H]3[C@@H](COP(=O)(S)O[C@H]2[C@H]1F)C[C@H]3n1cnc2c(=O)[nH]cnc21` (single isomer, unassigned) [Example 22-2]: the EC50 in assay [1] (20 hours) and in assay [2] (20 hours) was above 100 µM each time. The IC50 in assay [3] turned out to be 0.02 µM.

With `NC(=O)c1cc([C@@H]2C[C@@H]3COP(=O)(S)OC[C@@H]4[C@@H](COP(=O)(S)OC[C@H]32)C[C@H]4n2cnc3c(N)ncnc32)ccn1` (single isomer, unassigned) [Example 15-2], the half-maximal effective concentration (EC50) in assay [1] (20 hours) was above 100 µM. Also, the half-inhibitory concentration (IC50) in assay [3] was 73.5 µM; in assay [4] it was above 100 µM.

One may read the EC50 as the concentration giving half of the maximal effect. Usually IC50 stands for the concentration at which inhibition is half-maximal.

Source of the values: patent US11339185B2, “Cyclic dinucleotides as anticancer agents” (Bristol-Myers Squibb Company, priority 2018, dated 2022).
